From BindingDB's records for doi:10.1021/cc1000049 (Chemical Diversity Research Institute, 2010)
Values joined by “and” are separate entries in the source; they are usually repeats but may differ in a detail not shown here. Equal values may be shown once.

Molecular target: 5-hydroxytryptamine receptor 6 (Homo sapiens, UniProt P50406)
Assay: Radioligand Binding Assay
Description: Radioligand binding assay using 5-HT6R.

Sequence of 5-hydroxytryptamine receptor 6 (P50406 whole entry): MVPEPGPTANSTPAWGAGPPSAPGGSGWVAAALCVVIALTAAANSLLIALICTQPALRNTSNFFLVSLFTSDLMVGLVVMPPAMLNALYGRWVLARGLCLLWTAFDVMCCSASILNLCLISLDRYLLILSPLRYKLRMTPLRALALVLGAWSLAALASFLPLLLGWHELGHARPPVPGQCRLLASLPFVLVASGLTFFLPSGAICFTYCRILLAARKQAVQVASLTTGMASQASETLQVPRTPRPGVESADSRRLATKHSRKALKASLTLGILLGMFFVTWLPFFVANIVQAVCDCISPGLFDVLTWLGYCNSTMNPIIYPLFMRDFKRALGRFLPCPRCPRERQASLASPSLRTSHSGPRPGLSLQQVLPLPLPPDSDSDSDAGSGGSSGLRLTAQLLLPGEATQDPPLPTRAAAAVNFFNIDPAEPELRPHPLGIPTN

O=S(=O)(c1ccccc1)c1nnn2c1nc(NC1CCCCC1)c1ccccc12 [PSTQ Analog, 3{1,26}] showed an IC50 of 0.0108 µM and a Ki of 0.00501 µM.

CNc1nc2c(S(=O)(=O)c3ccccc3)nnn2c2ccccc12 [PSTQ Analog, 3{1,2}] was tested, and the IC50 was over 0.3 µM.

Cc1ccc(S(=O)(=O)c2nnn3c2nc(NCc2ccccc2Cl)c2ccccc23)cc1 [PSTQ Analog, 3{2,13}] gave an IC50 of 0.528 µM.

CC1CCCCN1c1nc2c(S(=O)(=O)c3ccccc3)nnn2c2ccccc12 (stereo not drawn) [PSTQ Analog, 3{1,49}] showed an IC50 of 0.0421 µM and a Ki of 0.0195 µM.

Compound O=S(=O)(c1ccccc1)c1nnn2c1nc(NCC1CCCO1)c1cc(Cl)ccc12 (stereo not drawn) [PSTQ Analog, 3{12,21}] has an IC50 of 1.8 µM.

For CCc1ccc(S(=O)(=O)c2nnn3c2nc(NC2CCCCC2C)c2ccccc23)cc1 (stereo not drawn) [PSTQ Analog, 3{3,27}], the IC50 was 0.572 µM.

O=S(=O)(c1ccccc1)c1nnn2c1nc(NC1CCCC1)c1ccccc12 [PSTQ Analog, 3{1,25}] gave a Ki of 0.0129 µM.

Work on Cc1ccc(S(=O)(=O)c2nnn3c2nc(NCc2ccccc2C)c2ccccc23)cc1C [PSTQ Analog, 3{9,13}] yielded an IC50 of 0.602 µM.

COc1cccc(Nc2nc3c(S(=O)(=O)c4c(C)cc(C)cc4C)nnn3c3ccccc23)c1 [PSTQ Analog, 3{10,33}] showed an IC50 of 0.67 µM.

Compound CN(C)c1nc2c(S(=O)(=O)c3ccccc3)nnn2c2ccccc12 [PSTQ Analog, 3{1,40}] has an IC50 of over 0.03 µM.

In the case of CC(Nc1nc2c(S(=O)(=O)c3ccc(Cl)cc3)nnn2c2ccccc12)c1ccccc1 (stereo not drawn) [PSTQ Analog, 3{6,20}], the IC50 is reported as 0.628 µM.

With Cc1ccc(S(=O)(=O)c2nnn3c2nc(N2CCN(c4ccccn4)CC2)c2ccccc23)cc1C [PSTQ Analog, 3{9,58}] the IC50 was 1.2 µM.

Cc1ccc(S(=O)(=O)c2nnn3c2nc(NCc2ccccc2)c2ccccc23)cc1 [PSTQ Analog, 3{2,12}] showed an IC50 of 0.32 µM.

Work on CN(Cc1ccccc1)c1nc2c(S(=O)(=O)c3ccccc3)nnn2c2ccccc12 [PSTQ Analog, 3{1,43}] yielded a Ki of 0.00765 µM.

O=S(=O)(c1ccccc1)c1nnn2c1ncc1ccccc12 [PSTQ Analog, 8] showed an IC50 of 5.74 µM.

For CCC(C)Nc1nc2c(S(=O)(=O)c3cc(C)ccc3C)nnn2c2ccccc12 (stereo not drawn) [PSTQ Analog, 3{8,4}], the IC50 was 0.0359 µM and the Ki was 0.0167 µM.

O=S(=O)(c1ccccc1)c1nnn2c1nc(NCc1ccccc1Cl)c1ccccc12 [PSTQ Analog, 3{1,13}] gave an IC50 of 0.128 µM.

O=S(=O)(c1ccccc1)c1nnn2c1nc(NCc1ccco1)c1ccccc12 [PSTQ Analog, 3{1,22}] was tested, and the Ki was 0.00354 µM.

With CCc1ccccc1Nc1nc2c(S(=O)(=O)c3ccc(C)c(C)c3)nnn2c2ccccc12 [PSTQ Analog, 3{9,31}] the IC50 was 0.295 µM.

With CCC(C)Nc1nc2c(S(=O)(=O)c3ccccc3)nnn2c2ccccc12 (stereo not drawn) [PSTQ Analog, 3{1,4}] the IC50 was 0.0152 µM and the Ki was 0.00704 µM.

Compound Cc1ccc(S(=O)(=O)c2nnn3c2nc(N2CCCCCC2)c2ccccc23)cc1C [PSTQ Analog, 3{9,53}] has an IC50 of 1.31 µM.

With Cc1cccc(Nc2nc3c(S(=O)(=O)c4ccc(Br)cc4)nnn3c3ccccc23)c1C [PSTQ Analog, 3{7,37}] the IC50 was 0.704 µM.

O=S(=O)(c1ccccc1)c1nnn2c1nc(NCc1ccccc1)c1ccccc12 [PSTQ Analog, 3{1,12}] gave an IC50 of 0.381 µM.

With O=S(=O)(c1ccccc1)c1nnn2c1nc(NCC1CCCO1)c1ccccc12 (stereo not drawn) [PSTQ Analog, 3{1,21}] the IC50 was 0.0754 µM and 0.0284 µM and the Ki was 0.0132 µM.

In the case of CCC(C)Nc1nc2c(S(=O)(=O)c3c(C)cc(C)cc3C)nnn2c2ccccc12 (stereo not drawn) [PSTQ Analog, 3{10,4}], the IC50 is reported as 0.964 µM.

In the case of CC1CCC(Nc2nc3c(S(=O)(=O)c4ccccc4)nnn3c3ccccc23)CC1 (stereo not drawn) [PSTQ Analog, 3{1,28}], the IC50 is reported as 0.0595 µM and the Ki is reported as 0.0276 µM.

Work on Cc1cccc(Nc2nc3c(S(=O)(=O)c4c(C)cc(C)cc4C)nnn3c3ccccc23)c1 [PSTQ Analog, 3{10,32}] yielded an IC50 of 1 µM.

For CCc1ccccc1Nc1nc2c(S(=O)(=O)c3cc(C)ccc3C)nnn2c2ccccc12 [PSTQ Analog, 3{8,31}], the IC50 was 0.77 µM.

COCCOc1nc2c(S(=O)(=O)c3ccccc3)nnn2c2ccccc12 [PSTQ Analog, 10] gave an IC50 of 1.37 µM.

CC1CCCCC1Nc1nc2c(S(=O)(=O)c3ccccc3)nnn2c2ccccc12 (stereo not drawn) [PSTQ Analog, 3{1,27}] gave an IC50 of 0.00617 µM and a Ki of 0.00286 µM.

Cc1ccc(S(=O)(=O)c2nnn3c2nc(NC(C)c2ccccc2)c2ccccc23)cc1 (stereo not drawn) [PSTQ Analog, 3{2,20}] showed an IC50 of 0.74 µM.

With CN(C)CCN(C)c1nc2c(S(=O)(=O)c3ccccc3)nnn2c2ccccc12 [PSTQ Analog, 3{1,42}] the IC50 was over 0.03 µM.

CCN(Cc1ccccc1)c1nc2c(S(=O)(=O)c3ccc(C)c(C)c3)nnn2c2ccccc12 [PSTQ Analog, 3{9,44}] showed an IC50 of 0.971 µM.

For CCSc1nc2c(S(=O)(=O)c3ccccc3)nnn2c2ccccc12 [PSTQ Analog, 9], the IC50 was 1.05 µM.

Cc1ccc(S(=O)(=O)c2nnn3c2nc(NCC2CCCO2)c2ccccc23)cc1C (stereo not drawn) [PSTQ Analog, 3{9,21}] gave an IC50 of 0.779 µM.

CCc1ccccc1Nc1nc2c(S(=O)(=O)c3ccc(Br)cc3)nnn2c2ccccc12 [PSTQ Analog, 3{7,31}] gave an IC50 of 1.43 µM.

For Cc1ccc(S(=O)(=O)c2nnn3c2nc(NCC(C)c2ccccc2)c2ccccc23)cc1 (stereo not drawn) [PSTQ Analog, 3{2,10}], the IC50 was 0.606 µM.

Cc1ccc(S(=O)(=O)c2nnn3c2nc(NCCc2ccccc2)c2ccccc23)cc1C [PSTQ Analog, 3{9,9}] showed an IC50 of 2.01 µM.

Work on O=S(=O)(c1ccccc1)c1nnn2c1nc(NCc1cccnc1)c1ccccc12 [PSTQ Analog, 3{1,23}] yielded an IC50 of 0.983 µM.

For CCN(Cc1ccccc1)c1nc2c(S(=O)(=O)c3ccccc3)nnn2c2ccccc12 [PSTQ Analog, 3{1,44}], the IC50 was 0.164 µM.

Work on Cc1ccc(S(=O)(=O)c2nnn3c2nc(NCC2CCCO2)c2ccccc23)cc1 (stereo not drawn) [PSTQ Analog, 3{2,21}] yielded an IC50 of 1.48 µM.

Work on Cc1ccc(S(=O)(=O)c2nnn3c2nc(NC(C)c2ccccc2)c2ccccc23)cc1C (stereo not drawn) [PSTQ Analog, 3{9,20}] yielded an IC50 of 0.356 µM.

Cc1cc(C)c(S(=O)(=O)c2nnn3c2nc(NC(C)C)c2ccccc23)c(C)c1 [PSTQ Analog, 3{10,3}] gave an IC50 of 2.18 µM.

For CC(C)Nc1nc2c(S(=O)(=O)c3ccccc3)nnn2c2ccccc12 [PSTQ Analog, 3{1,3}], the IC50 was 0.107 µM and the Ki was 0.0495 µM.

Cc1cc(C)c(S(=O)(=O)c2nnn3c2nc(NCC2CCCO2)c2ccccc23)c(C)c1 (stereo not drawn) [PSTQ Analog, 3{10,21}] gave an IC50 of 1.46 µM.
